Experimental data: US20260335314A1, “CRYSTALLINE SALTS OR AMORPHOUS FORMS OF 2-((1H-PYRAZOL-3-YL)METHYL)-6-((6-AMINOPYRIDIN-2-YL)METHYL)-4-METHYL-4,6-DIHYDRO -5H-THIAZOLO[5',4':4,5]PYRROLO[2,3-D]PYRIDAZIN-5-ONE” (Agios Pharmaceuticals, Inc., priority 2023, published 2026)
Values after ≈ are worked out from the molar mass of the structure shown.

Assays:
[1] = Dynamic vapor sorption (moisture uptake); assay type: physicochemical; conditions: 25° C., from 5% to 95% relative humidity
Method: Dynamic Vapor Sorption (DVS) was carried out using a TA Instruments Q5000 Dynamic Vapor Sorption analyzer. The instrument was calibrated with standard weights and a sodium bromide standard for humidity. Approximately 10-25 mg of sample was loaded into a metal-coated quartz pan for analysis. […] The movement from one step to the next occurred either after satisfying the equilibrium criterion of 0.01% weight change or, if the equilibrium criterion was not met, after one hour. The percent weight change values were calculated using Microsoft Excel®.

[2] = Pharmacokinetics / absolute bioavailability in male Sprague Dawley rats; assay type: in vivo
Method: Twenty-one (21) male Sprague Dawley rats (purchased from Shanghai Laboratory Animal Center Co., Ltd., Shanghai, China) were randomized into 7 groups (3 animals per group). The animals fasted overnight, the forms of Compound 1 shown in Table 7 were administered by oral gavage, and the animals were fed 4 hours post-dose.
Blood was serially collected from each animal at 0 (pre-dose), 0.083, 0.25, 0.5, 1, 2, 4, 8, and 24 h post-dose. For each collection, the animal was restrained manually, and approximately 150 μL of blood sample was collected via the tail vein into K2EDTA tubes. Plasma samples were stored at approximately −70° C. until analysis.
To enable the calculation of absolute bioavailability, Compound 1 was formulated as a solution in 10% N-methyl-2-pyrrolidone, 10% Solutol HS 15, and 80% saline and administered at 1 mg/kg as intravenous (IV) bolus dose to a separate group of male Sprague Dawley rats, and blood samples were collected at similar timepoints to those shown above. Further, plasma samples were obtained from the collected samples and stored at approximately −70° C. until analysis.
The concentration of Compound 1 in the plasma samples was determined by LC-MS/MS analysis.
A 20 μL aliquot of each plasma sample was mixed with 200 μL of acetonitrile containing glipizide as an internal standard (40 ng/mL). The resulting mixture was vortexed at 1500 rpm for 2 min and centrifuged at 5800 rpm for 10 min. A 1 μL sample from the supernatant was injected into LC-MS/MS.
LC-MS/MS analysis was conducted on a UPLC/MS-MS (API 6500+) system under the conditions outlined in Table 8
The absolute bioavailability of each form of Compound 1 was determined by dividing the AUCinf of the form in question by the AUCinf obtained historical data by IV administration of Compound 1.

[3] = pH solubility in buffers; assay type: physicochemical; conditions: for pH (24 h): pH of solution at 24 h; for solubility / solubility at 2 h / solubility at 24 h: 37 °C
Method: (§1) Solubility samples were prepared by weighing about 10 mg of each salt and adding 1 mL of media and vortexed briefly to obtain suspensions. […] For such instances, the solubility is calculated as greater than (>).
(§2) The sample vials were capped and wrapped in aluminum foil, and placed on a shaker at 37° C. The shaker was set at about 100 rpm and vials were removed at specified time points. The vials were observed, and the supernatants were transferred to Eppendorf tubes and centrifuged at 3K for 10 minutes. The clear supernatants were transferred to HPLC vials. The samples were diluted prior to HPLC analysis using the dilution media by 2× or used without dilution. pH was measured of the 24 hour timepoint after centrifugation using a micro pH probe.
(§3) • pH 2 buffer USP: Mixed 50 mL of 0.2M potassium chloride and 13 mL 0.2M HCl, diluted to 200 mL with water. • pH 4.5 buffer USP: 5.44 g of potassium dihydrogen phosphate was diluted to 1000 mL with water. • pH 6.8 buffer USP: Mixed 50 mL of 0.2M potassium phosphate and 22.4 mL 0.2M sodium hydroxide. Diluted with water to 200 mL. • SGF: 2.0109 g of NaCl was dissolved in water, added 7 mL of conc. HCl and diluted to 1 L. • FeSSIF: 4.0321 g of NaOH and 11.8726 g of NaCl were dissolved in water, added 8.65 mL of glacial acetic acid, adjusted the pH to 5.0 and diluted to 1 L. • FaSSIF: 0.4247 g of NaOH, 3.9548 g of sodium phosphate monobasic monohydrate and 6.1900 g of NaCl were dissolved in water, adjusted the pH to 6.5 and diluted to 1 L.
At each time point, the solution was analyzed by HPLC and residue was vacuum dried and analyzed by XRPD. The pH of the solution was measured at 24 hours.

[4] = Kinetic solubility in biorelevant media; assay type: physicochemical
Method: as §1, §2
as §3, with “adjusted the pH to 5.0 and diluted to 1 L. • FaSSIF:” left out
Kinetic solubility was determined in biorelevant media. At each time point, the solution was analyzed by HPLC. The solid residue was analyzed by XRPD at selected time points. The pH of the solution was measured at 24 hours.

[5] = Physicochemical properties of Form A (summary)
[6] = Stability study of Form A (storage); assay type: physicochemical
[7] = SGF pH 1.2, pH of solution at 24 h

Compound: Cn1c2nc(Cc3cc[nH]n3)sc2c2cnn(Cc3cccc(N)n3)c(=O)c21.O=C(O)C(O)C(O)C(=O)O (racemic) [Form C]
- moisture uptake (DVS) [1]: about 0.06%
- absolute bioavailability, comparison with other forms ([2]; oral gavage, 10 mg/kg): higher than the measured bioavailability of the other forms of Compound 1
- bioavailability ([2]; rat, plasma, po, 10 mg/kg, oral gavage, 10 mg/kg, vs historical IV AUCinf, read-out: Absolute % F): 91%
- AUC(0-inf) ([2]; rat, plasma, po, 10 mg/kg, oral gavage, fasted overnight): 14200 ng·h/mL
- dissolution in 0.1N HCl ([3]; 0.1N HCl): dissolved instantly
- pH (24 h) ([3]; 0.1 N HCl): 1.27
- solubility ([3]; 0.1 n hcl, dissolved instantly, estimated by adding 100 uL aliquots, read-out: solubility): > 10900 µg/mL
- pH solubility, overall ([3]; buffers pH 1 to pH 6.8): highest solubility
- pH (24 h) ([3]; pH 2 (USP)): 2.52
- pH (24 h) ([3]; pH 4.5 (USP)): 3.92
- pH (24 h) ([3]; pH 6.8 (USP)): 3.54
- solubility at 2 h ([3]; ph 2 buffer (usp), pH 2, pH 2 (USP), 2 h): 3810 µg/mL
- solubility at 24 h ([3]; ph 2 buffer (usp), pH 2, pH 2 (USP), 24 h): 2460 µg/mL
- solubility at 2 h ([3]; ph 4.5 buffer (usp), pH 4.5, pH 4.5 (USP), 2 h): 150 µg/mL
- solubility at 24 h ([3]; ph 4.5 buffer (usp), pH 4.5, pH 4.5 (USP), 24 h): 120 µg/mL
- solubility at 2 h ([3]; ph 6.8 buffer (usp), pH 6.8, pH 6.8 (USP), 2 h): 370 µg/mL
- solubility at 24 h ([3]; ph 6.8 buffer (usp), pH 6.8, pH 6.8 (USP), 24 h): 330 µg/mL
- pH (24 h) ([4]; FaSSIF pH 5.0 (so in the source), pH of solution at 24 h): 4.60
- pH (24 h) ([4]; FeSSIF pH 6.5 (so in the source), pH of solution at 24 h): 3.35
- pH (24 h) [4, 7]: 1.13
- kinetic solubility, overall ([4]; all media tested): highest solubility in all media tested
- solubility at 10 min ([4]; fassif, pH 5, FaSSIF pH 5.0 (so in the source), 10 min, 37 °C): 650 µg/mL
- solubility at 0.5 h ([4]; fassif, pH 5, FaSSIF pH 5.0 (so in the source), 30 min, 37 °C): 310 µg/mL
- solubility at 1 h ([4]; fassif, pH 5, FaSSIF pH 5.0 (so in the source), 1 h, 37 °C): 250 µg/mL
- solubility at 2 h ([4]; fassif, pH 5, FaSSIF pH 5.0 (so in the source), 2 h, 37 °C): 200 µg/mL
- solubility at 4 h ([4]; fassif, pH 5, FaSSIF pH 5.0 (so in the source), 4 h, 37 °C): 100 µg/mL
- solubility at 24 h ([4]; fassif, pH 5, FaSSIF pH 5.0 (so in the source), 24 h, 37 °C): 120 µg/mL
- solubility at 10 min ([4]; fessif, pH 6.5, FeSSIF pH 6.5 (so in the source), 10 min, 37 °C): 530 µg/mL
- solubility at 0.5 h ([4]; fessif, pH 6.5, FeSSIF pH 6.5 (so in the source), 30 min, 37 °C): 860 µg/mL
- solubility at 1 h ([4]; fessif, pH 6.5, FeSSIF pH 6.5 (so in the source), 1 h, 37 °C): 910 µg/mL
- solubility at 2 h ([4]; fessif, pH 6.5, FeSSIF pH 6.5 (so in the source), 2 h, 37 °C): 990 µg/mL
- solubility at 4 h ([4]; fessif, pH 6.5, FeSSIF pH 6.5 (so in the source), 4 h, 37 °C): 810 µg/mL
- solubility at 24 h ([4]; fessif, pH 6.5, FeSSIF pH 6.5 (so in the source), 24 h, 37 °C): 20 µg/mL
- solubility ([4]; sgf, pH 1.2, SGF pH 1.2, 37 °C, dissolved instantly, from total volume of media added, read-out: solubility): > 11100 µg/mL
- dissolution in SGF ([4]; simulated gastric fluid (SGF)): dissolved instantly

Compound: Cn1c2nc(Cc3cc[nH]n3)sc2c2cnn(Cc3cccc(N)n3)c(=O)c21 [Form A]
- moisture uptake (DVS) [1]: about 0.08%
- absolute bioavailability, comparison with other forms ([2]; oral gavage, 10 mg/kg): higher than the measured bioavailability of the other forms of Compound 1
- AUCinf ([2]; oral gavage, 10 mg/kg, fasted overnight, plasma): 9426 ng·h/mL
- Absolute % F ([2]; oral gavage, 10 mg/kg, vs historical IV AUCinf, 10 mg/kg): 60%
- plasma concentration-time profiles and pharmacokinetic parameters ([2]; summary statement): favorable plasma concentration-time profiles and pharmacokinetic parameters
- stability in solvent systems ([5]; especially containing water): stability in multiple solvent systems
- stability in humidity ([5]; relative humidity): at least 20 % RH
- particle size ([5]; under microscope): below 20 μm
- stability in humidity (water activity) ([5]; water activity): ≥ 0.2
- solubility at 2 h ([3]; 0.1 n hcl, 2 h): 1970 µg/mL (≈ 5020 µM)
- solubility at 24 h ([3]; 0.1 n hcl, 24 h): 1480 µg/mL (≈ 3770 µM)
- solubility ([3]; pH 2 (USP), 2 h, 120 min): 400 µg/mL (≈ 1020 µM)
- solubility ([3]; pH 2 (USP), 24 h, 1440 min): 300 µg/mL (≈ 764 µM)
- pH (24 h) ([3]; pH 2 (USP)): 2.06
- solubility ([3]; pH 4.5 (USP), 2 h, 120 min): 60 µg/mL (≈ 153 µM)
- solubility ([3]; pH 4.5 (USP), 24 h, 1440 min): 50 µg/mL (≈ 127 µM)
- pH (24 h) ([3]; pH 4.5 (USP)): 4.32
- solubility ([3]; pH 6.8 (USP), 2 h, 120 min): 40 µg/mL (≈ 102 µM)
- solubility ([3]; pH 6.8 (USP), 24 h, 1440 min): 70 µg/mL (≈ 178 µM)
- pH (24 h) ([3]; pH 6.8 (USP)): 5.63
- solubility ([4]; FaSSIF pH 6.5, 10 min, 37 °C, 10 min): 120 µg/mL (≈ 306 µM)
- solubility ([4]; FaSSIF pH 6.5, 30 min, 37 °C, 30 min): 120 µg/mL (≈ 306 µM)
- solubility ([4]; FaSSIF pH 6.5, 1 h, 37 °C, 60 min): 110 µg/mL (≈ 280 µM)
- solubility ([4]; FaSSIF pH 6.5, 2 h, 37 °C, 120 min): 160 µg/mL (≈ 408 µM)
- solubility ([4]; FaSSIF pH 6.5, 4 h, 37 °C, 240 min): 170 µg/mL (≈ 433 µM)
- solubility ([4]; FaSSIF pH 6.5, 24 h, 37 °C, 1440 min): 180 µg/mL (≈ 459 µM)
- pH (24 h) ([4]; FaSSIF pH 6.5, pH of solution at 24 h): 3.91
- solubility ([4]; FeSSIF pH 5.0, 10 min, 37 °C, 10 min): 550 µg/mL (≈ 1400 µM)
- solubility ([4]; FeSSIF pH 5.0, 30 min, 37 °C, 30 min): 100 µg/mL (≈ 255 µM)
- solubility ([4]; FeSSIF pH 5.0, 1 h, 37 °C, 60 min): 230 µg/mL (≈ 586 µM)
- solubility ([4]; FeSSIF pH 5.0, 2 h, 37 °C, 120 min): 70 µg/mL (≈ 178 µM)
- solubility ([4]; FeSSIF pH 5.0, 4 h, 37 °C, 240 min): 70 µg/mL (≈ 178 µM)
- solubility ([4]; FeSSIF pH 5.0, 24 h, 37 °C, 1440 min): 30 µg/mL (≈ 76.4 µM)
- pH (24 h) ([4]; FeSSIF pH 5.0, pH of solution at 24 h): 5.74
- pH (24 h) [4, 7]: 0.87
- solubility at 10 min ([4]; sgf, pH 1.2, SGF pH 1.2, 10 min, 37 °C): 2850 µg/mL (≈ 7260 µM)
- solubility at 0.5 h ([4]; sgf, pH 1.2, SGF pH 1.2, 30 min, 37 °C): 4960 µg/mL (≈ 12600 µM)
- solubility at 1 h ([4]; sgf, pH 1.2, SGF pH 1.2, 1 h, 37 °C): 2840 µg/mL (≈ 7240 µM)
- solubility at 2 h ([4]; sgf, pH 1.2, SGF pH 1.2, 2 h, 37 °C): 3240 µg/mL (≈ 8260 µM)
- solubility at 4 h ([4]; sgf, pH 1.2, SGF pH 1.2, 4 h, 37 °C): 3770 µg/mL (≈ 9610 µM)
- solubility at 24 h ([4]; sgf, pH 1.2, SGF pH 1.2, 24 h, 37 °C): 2880 µg/mL (≈ 7340 µM)
- degradation ([6]; one month under 25±2° C./60±5% RH): No degradation was observed
- degradation ([6]; one month under 40±2° C./75±5% RH): No degradation was observed
